Test results published in PubChem BioAssay (NCI).
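Test compounds were applied to cells in 96-well plates for 48 hours at 5 doses. Abbreviation: GI50, concentration required for 50% inhibition of growth. At the TGI there is no net growth.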

Tests used:
Assay in all cases: growth of human tumour cells (NCI), 48 h; in the data active = GI50 below about 0.43 µM; inactive = the rest
SNB-75 CNS = tested on: SNB-75 CNS
HCC-2998 colon = tested on: HCC-2998 colon
NCI/ADR-RES ovarian = tested on: NCI/ADR-RES ovarian
NCI-H460 lung = tested on: NCI-H460 lung
DU-145 prostate = tested on: DU-145 prostate
IGROV1 ovarian = tested on: IGROV1 ovarian
MALME-3M melanoma = tested on: MALME-3M melanoma
RPMI-8226 leukemia = tested on: RPMI-8226 leukemia
MCF7 breast = tested on: MCF7 breast
MDA-MB-231 breast = tested on: MDA-MB-231 breast
T-47D breast = tested on: T-47D breast
NCI-H23 lung = tested on: NCI-H23 lung
UACC-62 melanoma = tested on: UACC-62 melanoma
SK-OV-3 ovarian = tested on: SK-OV-3 ovarian
NCI-H522 lung = tested on: NCI-H522 lung
KM12 colon = tested on: KM12 colon
PC-3 prostate = tested on: PC-3 prostate
TK-10 renal = tested on: TK-10 renal
OVCAR-4 ovarian = tested on: OVCAR-4 ovarian
ACHN renal = tested on: ACHN renal
NCI-H226 lung = tested on: NCI-H226 lung
CCRF-CEM leukemia = tested on: CCRF-CEM leukemia
HCT-15 colon = tested on: HCT-15 colon
RXF 393 renal = tested on: RXF 393 renal
SK-MEL-28 melanoma = tested on: SK-MEL-28 melanoma
LOX IMVI melanoma = tested on: LOX IMVI melanoma
HOP-62 NSCLC = tested on: HOP-62 NSCLC
U251 CNS = tested on: U251 CNS
OVCAR-3 ovarian = tested on: OVCAR-3 ovarian
SN12C renal = tested on: SN12C renal
COLO 205 colon = tested on: COLO 205 colon
HOP-92 NSCLC = tested on: HOP-92 NSCLC
SF-295 CNS = tested on: SF-295 CNS
A498 renal = tested on: A498 renal
OVCAR-8 ovarian = tested on: OVCAR-8 ovarian
HCT-116 colon = tested on: HCT-116 colon
K-562 leukemia = tested on: K-562 leukemia
EKVX NSCLC = tested on: EKVX NSCLC
UACC-257 melanoma = tested on: UACC-257 melanoma
HT29 colon = tested on: HT29 colon
MOLT-4 leukemia = tested on: MOLT-4 leukemia
UO-31 renal = tested on: UO-31 renal
BT-549 breast = tested on: BT-549 breast
CAKI-1 renal = tested on: CAKI-1 renal
HS 578T breast = tested on: HS 578T breast
SNB-19 CNS = tested on: SNB-19 CNS
SW-620 colon = tested on: SW-620 colon
M14 melanoma = tested on: M14 melanoma
SK-MEL-2 melanoma = tested on: SK-MEL-2 melanoma
SK-MEL-5 melanoma = tested on: SK-MEL-5 melanoma
HL-60(TB) leukemia = tested on: HL-60(TB) leukemia
MDA-MB-435 = tested on: MDA-MB-435
OVCAR-5 ovarian = tested on: OVCAR-5 ovarian
SF-268 CNS = tested on: SF-268 CNS
786-0 renal = tested on: 786-0 renal
A549 NSCLC = tested on: A549 NSCLC

NC(N)=NN=C(c1ccccc1)c1ccccc1
19.1 µM: TGI (MALME-3M melanoma)
42.5 µM: TGI (UACC-62 melanoma)
23.7 µM: TGI (SK-OV-3 ovarian)
20.4 µM: TGI (HCC-2998 colon)
51.8 µM: TGI (LOX IMVI melanoma)
36.9 µM: TGI (SK-MEL-28 melanoma)
17.3 µM: TGI (NCI-H460 lung)
41.7 µM: TGI (MCF7 breast)
24.6 µM: TGI (U251 CNS)
41.9 µM: TGI (UACC-257 melanoma)
39.8 µM: TGI (OVCAR-8 ovarian)
> 100 µM: TGI (SNB-75 CNS) | TGI (NCI/ADR-RES ovarian) | TGI (DU-145 prostate) | TGI (T-47D breast) | TGI (NCI-H23 lung) | TGI (PC-3 prostate) | TGI (TK-10 renal) | TGI (ACHN renal) | TGI (NCI-H226 lung) | TGI (CCRF-CEM leukemia) | TGI (HCT-15 colon) | TGI (HOP-62 NSCLC) | TGI (SN12C renal) | TGI (A498 renal) | TGI (EKVX NSCLC) | TGI (UO-31 renal) | TGI (CAKI-1 renal) | TGI (SNB-19 CNS) | TGI (OVCAR-5 ovarian) | TGI (SF-268 CNS) | TGI (A549 NSCLC)
20 µM: TGI (KM12 colon)
16 µM: TGI (SF-295 CNS)
8.51 µM: TGI (NCI-H522 lung)
9.3 µM: TGI (M14 melanoma)
36.2 µM: TGI (786-0 renal)
87.6 µM: TGI (IGROV1 ovarian)
5.49 µM: TGI (OVCAR-3 ovarian)
13.9 µM: TGI (SK-MEL-2 melanoma)
55.1 µM: TGI (HOP-92 NSCLC)
3.93 µM: TGI (RXF 393 renal)
91.7 µM: TGI (MOLT-4 leukemia)
inactive: GI50 (SNB-75 CNS) 3.49 µM | GI50 (HCC-2998 colon) 4.49 µM | GI50 (NCI/ADR-RES ovarian) 19.7 µM | GI50 (NCI-H460 lung) 3.51 µM | GI50 (DU-145 prostate) 3.45 µM | GI50 (IGROV1 ovarian) 4.32 µM | GI50 (MALME-3M melanoma) 2.99 µM | GI50 (RPMI-8226 leukemia) 3.97 µM | GI50 (MCF7 breast) 2.28 µM | GI50 (MDA-MB-231 breast) 4.3 µM | GI50 (T-47D breast) 6.65 µM | GI50 (NCI-H23 lung) 6.04 µM | GI50 (UACC-62 melanoma) 4.64 µM | GI50 (SK-OV-3 ovarian) 3.31 µM | GI50 (NCI-H522 lung) 2.38 µM | GI50 (KM12 colon) 2.53 µM | GI50 (PC-3 prostate) 2.95 µM | GI50 (TK-10 renal) 5.75 µM | GI50 (OVCAR-4 ovarian) 5.16 µM | GI50 (ACHN renal) 4.13 µM | GI50 (NCI-H226 lung) 14.1 µM | GI50 (CCRF-CEM leukemia) 4.38 µM | GI50 (HCT-15 colon) 3.25 µM | GI50 (RXF 393 renal) 1.71 µM | GI50 (SK-MEL-28 melanoma) 5.82 µM | GI50 (LOX IMVI melanoma) 6.09 µM | GI50 (HOP-62 NSCLC) 6.75 µM | GI50 (U251 CNS) 3.5 µM | GI50 (OVCAR-3 ovarian) 2.15 µM | GI50 (SN12C renal) 6.25 µM | GI50 (COLO 205 colon) 1.91 µM | GI50 (HOP-92 NSCLC) 2.14 µM | GI50 (SF-295 CNS) 2.9 µM | GI50 (A498 renal) 3.49 µM | GI50 (OVCAR-8 ovarian) 3.87 µM | GI50 (HCT-116 colon) 3.53 µM | GI50 (K-562 leukemia) 4.35 µM | GI50 (EKVX NSCLC) 6.82 µM | GI50 (UACC-257 melanoma) 9.79 µM | GI50 (HT29 colon) 2.89 µM | GI50 (MOLT-4 leukemia) 8.82 µM | GI50 (UO-31 renal) 4.48 µM | GI50 (BT-549 breast) 5.51 µM | GI50 (CAKI-1 renal) 3.77 µM | GI50 (HS 578T breast) 1.78 µM | GI50 (SNB-19 CNS) 7.69 µM | GI50 (SW-620 colon) 3.63 µM | GI50 (M14 melanoma) 2.64 µM | GI50 (SK-MEL-2 melanoma) 2.16 µM | GI50 (SK-MEL-5 melanoma) 3.06 µM | GI50 (HL-60(TB) leukemia) 3.11 µM | GI50 (MDA-MB-435) 0.612 µM | GI50 (OVCAR-5 ovarian) 7.94 µM | GI50 (SF-268 CNS) 6.8 µM | GI50 (786-0 renal) 4.71 µM | GI50 (A549 NSCLC) 4.03 µM
2.94 µM: TGI (MDA-MB-435)
41.5 µM: TGI (SW-620 colon)
93.6 µM: TGI (OVCAR-4 ovarian)
4.19 µM: TGI (COLO 205 colon)
27.5 µM: TGI (K-562 leukemia)
12.1 µM: TGI (HL-60(TB) leukemia)
89.7 µM: TGI (HCT-116 colon)
7.91 µM: TGI (HS 578T breast)
65.3 µM: TGI (BT-549 breast)
40.8 µM: TGI (MDA-MB-231 breast)
17.8 µM: TGI (RPMI-8226 leukemia) | TGI (HT29 colon)
14.7 µM: TGI (SK-MEL-5 melanoma)
